Assays:
[1] = tested on: IL-2 secretion of human CD3+ T cells; experiment: IL-2 secretion (ELISA) of primary human CD3+ T cells stimulated with anti-CD3 or anti-CD3+PDL2 beads; assay type: cell-based; conditions: control or SAP KD siRNA, anti-CD3+PDL2 beads 24 hours
Method: FIG. 13. (a) Jurkat T cells were transfected with non-targeting siRNA control and siRNA to SAP, followed by immunoblot analysis. […] Media was harvested and IL-2 levels were measured (ELISA). * P<0.05, NS not significant, n=3, unpaired t test. (c) control vector or SAP-expressing vector for 48 hours and samples were analyzed for SAP expression by immunoblotting. (d) Cell expressing SAP were stimulated overnight and CD69 expression levels were recorded by FACS. (e) T cells from XLP patients and healthy controls were tested for PD-1 expression by FACS analysis. For FIG. 7b 13b, the bars from left to right for each set are: Control, CD3, and CD3+PDL2.
By contrast, overexpression of SAP-GFP (FIG. 13c and FIG. 5b) abrogated the ability of PD-1 to inhibit anti-CD3-induced IL-2 secretion (FIG. 5c), CD69 up regulation (FIG. 5d and FIG. 13d), IFN-γ release (FIG. 5e), and T cell adhesion to fibronectin-coated wells (FIG. 5f). Thus, SAP appears to be a negative regulator of PD-1 signaling and function in T cells.
Primary human T cells were isolated from whole blood using RosetteSep (Stemcell) followed by Ficoll-Paque, according to the manufacturer's instructions. The cells were maintained in enriched media (HEPES 25 mM, Sodium pyruvate 100 mM, Nonessential amino acid, and L-Glutamine) at 5% C02 and 37° C. […]

[2] = tested on: phosphorylation of ERK, PLCγ and ZAP70 in Jurkat T cells; experiment: Immunoblot of PD-1 signaling in Jurkat T cells stimulated with anti-CD3 or anti-CD3+PDL2 beads; assay type: cell-based, human; conditions: SAP-deficient (SAP KD) Jurkat T cells, SHP099 10 uM for one hour, anti-CD3+PDL2 beads 5 minutes

CC1(N)CCN(c2cnc(-c3cccc(Cl)c3Cl)c(N)n2)CC1.Cl [SHP099]
PD-1's ability to inhibit IL-2 secretion [1]: abrogation | PD-1's ability to inhibit the phosphorylation of ERK, PLCγ and ZAP70 [2]: abrogated
